Measurements as given in US20240327364A1, “THERAPEUTIC TARGETING OF GPR68 TO INDUCE FERROPTOSIS” (University Of Maryland, Baltimore, priority 2023, published 2024).
Read-outs that look alike come from different tables or passages of the source.

Assays:
FGR = target: T1, FGR (Homo sapiens, UniProt P09769); experiment: KinomeScan; format: binding; settings: read-out: % Control
T1 construct: purchased DiscoveRx (Fremont, CA)

DYRK1A = target: T2, DYRK1A (Homo sapiens, UniProt Q13627); experiment: KinomeScan; format: binding; settings: read-out: % Control
T2 construct: purchased DiscoveRx (Fremont, CA), KinomeScan service

TYRO3 = target: T3, TYRO3 (Homo sapiens, UniProt Q06418); experiment: KinomeScan; format: binding; settings: read-out: % Control
T3 construct: purchased DiscoveRx

CSNK1G2 = CSNK1G2 (Homo sapiens, UniProt P78368); experiment: KinomeScan; format: binding; settings: read-out: % Control
ULK3 = target: T4, ULK3 (Homo sapiens, UniProt Q6PHR2); experiment: KinomeScan; format: binding; settings: read-out: % Control
T4 construct: purchased DiscoveRx
T4 sequence (Q6PHR2 whole entry): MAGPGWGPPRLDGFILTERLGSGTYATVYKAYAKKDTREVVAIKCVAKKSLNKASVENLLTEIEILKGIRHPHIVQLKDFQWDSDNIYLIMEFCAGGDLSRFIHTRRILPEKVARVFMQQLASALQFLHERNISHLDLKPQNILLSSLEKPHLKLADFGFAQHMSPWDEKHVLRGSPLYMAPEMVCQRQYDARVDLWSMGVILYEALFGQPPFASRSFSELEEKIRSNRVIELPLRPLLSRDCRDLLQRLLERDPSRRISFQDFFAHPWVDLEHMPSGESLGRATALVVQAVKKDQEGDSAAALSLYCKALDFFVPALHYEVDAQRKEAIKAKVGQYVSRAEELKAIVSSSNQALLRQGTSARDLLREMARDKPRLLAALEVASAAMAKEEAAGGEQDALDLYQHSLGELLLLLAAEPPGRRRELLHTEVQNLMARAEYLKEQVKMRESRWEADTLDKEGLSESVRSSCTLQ

AT1 = target: T5, AT1 (Homo sapiens, UniProt P30556); experiment: GPCR Profiler; format: cell-based
T5 construct: host or cells: Chem-1 cells with promiscuous Gα15
T5 sequence (P30556 whole entry): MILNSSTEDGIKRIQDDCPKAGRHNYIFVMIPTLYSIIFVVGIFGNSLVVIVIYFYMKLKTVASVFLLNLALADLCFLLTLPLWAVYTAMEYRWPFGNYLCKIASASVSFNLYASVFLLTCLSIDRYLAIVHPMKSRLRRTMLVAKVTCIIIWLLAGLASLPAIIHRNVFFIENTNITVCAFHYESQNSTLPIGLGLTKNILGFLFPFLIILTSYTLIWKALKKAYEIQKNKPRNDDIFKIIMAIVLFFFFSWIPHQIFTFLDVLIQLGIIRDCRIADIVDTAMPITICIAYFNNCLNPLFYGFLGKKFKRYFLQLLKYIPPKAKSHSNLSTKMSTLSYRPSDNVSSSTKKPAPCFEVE

S1P2 = target: T6, S1P2 (Homo sapiens, UniProt O95136); experiment: GPCR Profiler; format: cell-based
T6 construct: host or cells: Chem-1 cells with Gα15
T6 sequence (O95136 whole entry, species assumed): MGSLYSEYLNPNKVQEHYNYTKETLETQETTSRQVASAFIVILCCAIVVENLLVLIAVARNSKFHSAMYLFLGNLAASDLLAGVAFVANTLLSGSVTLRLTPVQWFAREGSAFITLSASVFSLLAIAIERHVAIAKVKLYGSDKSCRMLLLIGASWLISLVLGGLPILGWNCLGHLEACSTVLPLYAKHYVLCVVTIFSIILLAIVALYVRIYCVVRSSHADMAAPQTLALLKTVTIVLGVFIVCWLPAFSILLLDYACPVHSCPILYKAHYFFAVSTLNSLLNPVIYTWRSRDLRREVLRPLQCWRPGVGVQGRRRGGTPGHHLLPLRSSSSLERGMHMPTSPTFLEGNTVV

CLK2 = CLK2 (Homo sapiens, UniProt P49760); experiment: KinomeScan; format: binding; settings: read-out: % Control
PKNB(M. tuberculosis) = target: T7, PKNB(M. tuberculosis) (Mycobacterium tuberculosis, UniProt P9WI81); experiment: KinomeScan; format: binding; settings: read-out: % Control
T7 construct: purchased DiscoveRx (Fremont, CA)
T7 sequence (P9WI81 whole entry): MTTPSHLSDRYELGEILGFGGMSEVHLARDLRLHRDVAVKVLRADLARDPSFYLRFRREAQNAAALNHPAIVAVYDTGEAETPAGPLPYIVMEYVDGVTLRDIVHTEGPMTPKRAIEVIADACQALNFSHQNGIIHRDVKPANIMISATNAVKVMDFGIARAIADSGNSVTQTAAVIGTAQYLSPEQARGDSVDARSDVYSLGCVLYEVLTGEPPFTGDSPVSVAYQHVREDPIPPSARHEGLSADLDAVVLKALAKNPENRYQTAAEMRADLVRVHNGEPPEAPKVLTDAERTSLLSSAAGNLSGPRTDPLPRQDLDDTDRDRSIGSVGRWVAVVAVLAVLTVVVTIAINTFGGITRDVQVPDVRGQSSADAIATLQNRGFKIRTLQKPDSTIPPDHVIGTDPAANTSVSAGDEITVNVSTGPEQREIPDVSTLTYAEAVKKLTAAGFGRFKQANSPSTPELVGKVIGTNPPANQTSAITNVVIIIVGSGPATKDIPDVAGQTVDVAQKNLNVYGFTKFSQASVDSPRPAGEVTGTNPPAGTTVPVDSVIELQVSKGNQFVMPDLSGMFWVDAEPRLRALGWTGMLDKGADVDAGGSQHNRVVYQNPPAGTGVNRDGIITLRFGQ

EP1 = target: T8, EP1 (Homo sapiens, UniProt P34995); experiment: GPCR Profiler; format: cell-based
T8 construct: host or cells: Chem-1 cells expressing Gα15
T8 sequence (P34995 whole entry): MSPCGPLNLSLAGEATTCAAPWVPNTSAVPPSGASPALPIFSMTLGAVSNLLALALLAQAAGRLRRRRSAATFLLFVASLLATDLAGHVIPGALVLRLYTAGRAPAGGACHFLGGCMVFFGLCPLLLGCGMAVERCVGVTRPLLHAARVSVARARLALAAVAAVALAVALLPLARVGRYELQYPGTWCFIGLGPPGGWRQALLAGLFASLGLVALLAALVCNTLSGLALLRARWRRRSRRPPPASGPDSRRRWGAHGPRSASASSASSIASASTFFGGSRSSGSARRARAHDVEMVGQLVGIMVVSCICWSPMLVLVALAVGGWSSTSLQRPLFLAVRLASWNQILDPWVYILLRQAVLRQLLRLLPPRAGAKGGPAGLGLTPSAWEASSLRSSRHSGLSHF

[1] = target: T9, RSK1(Kin.Dom.1-N-terminal) (Homo sapiens, UniProt Q15418); experiment: KinomeScan; format: binding; settings: read-out: % Control
T9 construct: RSK1(Kin.Dom.1-N-terminal); purchased DiscoveRx (Fremont, CA)
T9 sequence (Q15418 62-321 limits assumed): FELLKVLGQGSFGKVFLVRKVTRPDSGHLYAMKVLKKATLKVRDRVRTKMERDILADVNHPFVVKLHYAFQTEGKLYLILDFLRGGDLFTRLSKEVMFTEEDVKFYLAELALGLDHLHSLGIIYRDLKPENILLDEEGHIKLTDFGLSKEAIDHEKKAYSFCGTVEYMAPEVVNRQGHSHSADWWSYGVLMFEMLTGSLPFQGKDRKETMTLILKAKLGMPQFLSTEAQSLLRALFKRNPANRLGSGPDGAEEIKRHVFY

LATS2 = target: T10, LATS2 (Homo sapiens, UniProt Q9NRM7); experiment: KinomeScan; format: binding; settings: read-out: % Control
T10 construct: purchased DiscoveRx

CysLT1 = target: T11, CysLT1 (Homo sapiens, UniProt Q9Y271); experiment: GPCR Profiler; format: cell-based
T11 construct: host or cells: Chem-1 cells with Gα15
T11 sequence (Q9Y271 whole entry, species assumed): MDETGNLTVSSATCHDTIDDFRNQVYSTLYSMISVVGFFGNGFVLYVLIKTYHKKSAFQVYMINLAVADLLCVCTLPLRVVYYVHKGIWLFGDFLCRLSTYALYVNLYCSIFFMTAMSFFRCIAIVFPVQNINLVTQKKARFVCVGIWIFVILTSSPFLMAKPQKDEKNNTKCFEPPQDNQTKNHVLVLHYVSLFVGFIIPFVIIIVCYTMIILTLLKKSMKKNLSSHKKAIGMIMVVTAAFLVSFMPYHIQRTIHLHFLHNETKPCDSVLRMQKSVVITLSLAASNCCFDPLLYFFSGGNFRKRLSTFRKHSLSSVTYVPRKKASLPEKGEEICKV

TNIK = target: T12, TNIK (Homo sapiens, UniProt Q9UKE5); experiment: KinomeScan; format: binding; settings: read-out: % Control
T12 construct: purchased DiscoveRx (Fremont, CA)

PCTK1 = target: T13, PCTK1 (Homo sapiens, UniProt Q00536); experiment: KinomeScan; format: binding; settings: read-out: % Control
T13 construct: purchased DiscoveRx

MYO3B = target: T14, MYO3B (Homo sapiens, UniProt Q8WXR4); experiment: KinomeScan; format: binding; settings: read-out: % Control
T14 construct: purchased DiscoveRx
T14 sequence (Q8WXR4 whole entry): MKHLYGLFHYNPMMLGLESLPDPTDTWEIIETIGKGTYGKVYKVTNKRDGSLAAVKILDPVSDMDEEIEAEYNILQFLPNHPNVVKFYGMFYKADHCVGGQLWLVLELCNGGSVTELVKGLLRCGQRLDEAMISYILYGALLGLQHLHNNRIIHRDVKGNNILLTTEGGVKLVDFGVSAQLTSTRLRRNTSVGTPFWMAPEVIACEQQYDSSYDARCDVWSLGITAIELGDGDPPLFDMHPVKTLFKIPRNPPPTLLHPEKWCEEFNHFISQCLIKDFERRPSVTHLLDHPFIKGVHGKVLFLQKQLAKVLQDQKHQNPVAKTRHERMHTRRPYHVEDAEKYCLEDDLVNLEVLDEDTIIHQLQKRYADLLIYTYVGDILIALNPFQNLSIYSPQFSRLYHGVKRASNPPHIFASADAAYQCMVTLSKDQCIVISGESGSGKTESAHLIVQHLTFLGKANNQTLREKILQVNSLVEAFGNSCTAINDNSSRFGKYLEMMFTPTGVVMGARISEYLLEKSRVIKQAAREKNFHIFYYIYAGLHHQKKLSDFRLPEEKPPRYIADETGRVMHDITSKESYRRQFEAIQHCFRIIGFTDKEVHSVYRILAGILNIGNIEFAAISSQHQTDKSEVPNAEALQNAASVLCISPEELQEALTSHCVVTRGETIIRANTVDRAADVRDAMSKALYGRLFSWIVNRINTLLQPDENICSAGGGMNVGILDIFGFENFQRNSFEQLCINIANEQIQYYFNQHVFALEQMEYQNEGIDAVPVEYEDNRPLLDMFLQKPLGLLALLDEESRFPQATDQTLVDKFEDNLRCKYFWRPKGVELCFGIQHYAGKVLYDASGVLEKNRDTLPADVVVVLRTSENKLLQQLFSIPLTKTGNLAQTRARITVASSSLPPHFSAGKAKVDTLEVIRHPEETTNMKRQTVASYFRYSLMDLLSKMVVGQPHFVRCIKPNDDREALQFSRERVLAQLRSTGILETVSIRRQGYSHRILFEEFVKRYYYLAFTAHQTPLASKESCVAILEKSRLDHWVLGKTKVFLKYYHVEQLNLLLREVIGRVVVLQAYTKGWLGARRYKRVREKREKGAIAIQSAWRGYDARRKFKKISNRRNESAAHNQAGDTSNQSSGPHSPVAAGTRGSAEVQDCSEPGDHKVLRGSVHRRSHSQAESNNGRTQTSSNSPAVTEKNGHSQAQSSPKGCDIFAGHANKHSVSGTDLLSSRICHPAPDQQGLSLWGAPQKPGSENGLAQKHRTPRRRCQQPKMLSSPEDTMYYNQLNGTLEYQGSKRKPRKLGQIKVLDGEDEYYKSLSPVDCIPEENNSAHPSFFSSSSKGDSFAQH

CIT = CIT (Homo sapiens, UniProt O14578); experiment: KinomeScan; format: binding; settings: read-out: % Control
IKK-epsilon = target: T15, IKK-epsilon (Homo sapiens, UniProt Q14164); experiment: KinomeScan; format: binding; settings: read-out: % Control
T15 construct: purchased DiscoveRx (Fremont, CA)
T15 sequence (Q14164 whole entry): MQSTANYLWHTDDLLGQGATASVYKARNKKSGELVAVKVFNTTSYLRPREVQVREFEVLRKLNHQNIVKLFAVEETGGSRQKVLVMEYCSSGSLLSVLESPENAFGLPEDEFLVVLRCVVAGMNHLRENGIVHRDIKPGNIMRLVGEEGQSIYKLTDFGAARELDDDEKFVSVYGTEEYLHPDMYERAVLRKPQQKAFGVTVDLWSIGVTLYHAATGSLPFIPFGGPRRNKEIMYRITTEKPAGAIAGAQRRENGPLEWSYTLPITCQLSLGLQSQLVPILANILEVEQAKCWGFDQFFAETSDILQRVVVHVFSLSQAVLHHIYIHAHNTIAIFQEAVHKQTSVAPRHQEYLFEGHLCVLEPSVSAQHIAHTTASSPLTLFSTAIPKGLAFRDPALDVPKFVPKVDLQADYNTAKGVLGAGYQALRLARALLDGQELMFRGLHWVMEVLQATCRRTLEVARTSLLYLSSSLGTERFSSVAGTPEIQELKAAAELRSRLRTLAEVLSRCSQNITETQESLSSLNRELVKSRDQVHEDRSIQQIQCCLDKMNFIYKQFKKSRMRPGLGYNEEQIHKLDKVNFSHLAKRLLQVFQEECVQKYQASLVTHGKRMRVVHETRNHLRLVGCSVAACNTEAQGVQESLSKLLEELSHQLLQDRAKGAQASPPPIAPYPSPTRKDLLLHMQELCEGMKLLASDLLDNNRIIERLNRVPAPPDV

HCT 116 = experiment: Cell Titer-Glo viability, Colorectal adenocarcinoma; format: cell-based; settings: 72 hours
Protocol: (§1) OGM2 kills wide variety of cancer cell types. Cell sensitivity can be classified in to Very Sensitive (LC50<2 μM), Sensitive (LC50=2 to 10 μM), Mildly Sensitive (LC50>10 μM), and Refractory (no killing at 10 μM). The listed established cell were incubated with OGM2 at 2 μM or 10 μM for 72 hours under standard cell culture conditions, and relative cell number was assessed using Cell Titer-Glo Luminescent Cell Viability Assay (Promega™) following the manufacturer's instructions. Luminescence was determined using a Cytation 5 reader and Gen5 software package (BioTek™).
(§2) Cancer cells, which are very sensitive to killing by OGM2 (LCs <2 μM), with reported mRNA expression of GPR68 and the related proton sensing receptor GPR4. LC50's (concentrations causing 50% lethality) were determined using CellTiter-Glo (Promega™, G7570). Cells were plated in 12-well plates (CELLTREAT Scientific Products, 229112) in 1 ml of DMEM with high glucose, GlutaMAX, HEPES, or RPMI 1640 with Penicillin-Streptomycin (ThermoFisher™, 10564029, 11875119 and 15140122) and 10% FBS. Cells were incubated overnight at 37° C. in 5% CO2. Then 1 mL of fresh media was added with DMSO, OGM, or positive control (Erastin; APExBIO Technology, LLC, B1524) and cells incubated for 3 days. On the third day, all media was removed, cells were rinsed with 1×PBS, PBS was removed, and 200 μL of 1× Passive Lysis Buffer (Promega™, E1941) was added to each well. […]. Subsequently, 20 μL of lysate was added to 100 μL CellTiter-Glo™ reagent on a LUMITRAC 200 plate (Greiner™ bio-one, 82050-726). Plates were briefly spun down and read on a GloMax-Multi Detection System (Promega™).
(§3) The cells listed in the tables above were incubated with OGM2 at 2 μM or 10 μM for 72 hours under standard cell culture conditions, and relative cell number was assessed using Cell Titer-Glo Luminescent Cell Viability Assay (Promega™) following the manufacturer's instructions. Luminescence was determined using a Cytation 5 reader and Gen5 software package (BioTek™). RNA expression of GPR68 and GPR4 in the corresponding cancer cell lines are listed, according to the publicly available The Human Protein Atlas version 22.0 and Ensembl version 103.38 (see proteinatlas.org). The consensus normalized expression value (“nTPM”=normalize transcript per million) was calculated as the maximum nTPM value for each gene in the two data sources.

RKO = experiment: as above; format: cell-based
Protocol: as §1, §2, §3

A2058 = experiment: Scratch assay; format: cell-based, human; settings: 20 hours, OGM2 5 uM
PANC02 = experiment: Clonogenicity (crystal violet); format: cell-based; settings: 7 days
Protocol: In a third study, PANC02 pancreatic cells were plated at 400 cells per well in a 6-well plate and on the next day were treated with increasing concentrations of OGM2 for 7 days. The plate was fixed with formalin and stained with crystal violet.

Q: For `CCc1ccc2c(c1)C1(NN=C(c3cccc4ccccc34)S1)C(=O)N2` (centres unmarked) [OGM1, 5-ethyl-5′-naphthalen-1-ylspiro[1H-indole-3,2′-3H-1,3,4-thiadiazole]-2-one], which remaining binding at 10 µM (FGR) is on record?
A: The remaining binding at 10 µM was 100%.

Q: And the remaining binding at 10 µM (DYRK1A)?
A: The remaining binding at 10 µM was 39%.

Q: And the remaining binding at 10 µM (TYRO3)?
A: The remaining binding at 10 µM was 100%.

Q: What about the remaining binding at 10 µM (CSNK1G2) of the same compound?
A: The remaining binding at 10 µM was 100%.

Q: And the remaining binding at 10 µM (ULK3)?
A: The remaining binding at 10 µM was 100%.

Q: What about the Antagonism (AT1; 10 uM) of the same compound?
A: Its Antagonism is −0.7.

Q: What about the Agonism (AT1; 12.5 uM) of the same compound?
A: Its Agonism is −0.4.

Q: And the Antagonism (S1P2; 10 uM)?
A: Its Antagonism is −3.3.

Q: And the Agonism (S1P2; 12.5 uM)?
A: The Agonism was 0.5.

Q: What about the remaining binding at 10 µM (CLK2) of the same compound?
A: The remaining binding at 10 µM was 61%.

Q: What about the remaining binding at 10 µM (PKNB(M. tuberculosis)) of the same compound?
A: The remaining binding at 10 µM was 79%.

Q: What about the Antagonism (EP1; 10 uM) of the same compound?
A: The Antagonism was −6.

Q: What about the Agonism (EP1; 12.5 uM) of the same compound?
A: The Agonism was 0.2.

Q: And the remaining binding at 10 µM [1]?
A: The remaining binding at 10 µM was 78%.

Q: What about the remaining binding at 10 µM (LATS2) of the same compound?
A: Its remaining binding at 10 µM is 100%.

Q: And the Antagonism (CysLT1; 10 uM)?
A: The Antagonism was −2.4.

Q: What about the Agonism (CysLT1; 12.5 uM) of the same compound?
A: Its Agonism is 0.8.

Q: And the remaining binding at 10 µM (TNIK)?
A: The remaining binding at 10 µM was 71%.

Q: What about the remaining binding at 10 µM (PCTK1) of the same compound?
A: Its remaining binding at 10 µM is 77%.

Q: What about the remaining binding at 10 µM (MYO3B) of the same compound?
A: The remaining binding at 10 µM was 100%.

Q: What about the remaining binding at 10 µM (CIT) of the same compound?
A: The remaining binding at 10 µM was 94%.

Q: And the remaining binding at 10 µM (IKK-epsilon)?
A: The remaining binding at 10 µM was 100%.

Q: With `CCc1ccc2c(c1)C1(NN=C(c3ccccc3)S1)C(=O)N2` (centres unmarked) [OGM2] as the compound, how does the “% Survival 2 μM OGM” value (HCT 116) read?
A: The value was 44.5%.

Q: And the “% Survival 10 μM OGM” value (HCT 116)?
A: Its value is 32.7%.

Q: And the CC50 (HCT 116; Homo sapiens, HCT-116, read-out: LC50 (the source's name))?
A: The CC50 was < 2 µM.

Q: What about the Class (RKO) of the same compound?
A: The Class was “Mildly”.

Q: And the “% Survival 2 μM OGM” value (RKO; 72 hours)?
A: The value was 92.4%.

Q: What about the “% Survival 10 μM OGM” value (RKO; 72 hours) of the same compound?
A: Its value is 57.6%.

Q: And the CC50 (RKO; Homo sapiens, RKO, 72 hours, read-out: LC50 (the source's name))?
A: The CC50 was > 10 µM.

Q: And the Class (RKO; Table 13)?
A: The Class was “Low”.

Q: What about the migration (A2058) of the same compound?
A: Its migration is “inhibited migration”.

Q: What about the clonogenicity (PANC02) of the same compound?
A: The clonogenicity was “reduced the clonogenicity of pancreatic cancer cells”.
